Activity calls are given as the source filed them. The calls are words filed in the database; no cut-off is given here.
Experiments:
HepG2 [1] = assay: Increase in glucose consumption in human HepG2 cells assessed as glucose content in medium at 10^-6 M measured after 24 hrs by glucose oxidase method relative to control; type: functional
HepG2 [2] = assay: Increase in glucose consumption in human HepG2 cells assessed as glucose content in medium at 10^-6 M measured after 24 hrs by glucose oxidase method relative to metformin; type: functional
HepG2 [3] = assay: Increase in glucose consumption in human HepG2 cells assessed as glucose content in medium at 10^-6 M measured after 24 hrs by glucose oxidase method relative to rosiglitazone; type: functional
[4] = target: AMP-activated protein kinase (AMPK) alpha-1/beta-1/gamma-1 (Homo sapiens) (UniProt P54619+Q9Y478+Q13131); assay: Agonist activity at AMPKalpha1beta1gamma1 (unknown origin); type: protein-complex assay
AMP-activated protein kinase (AMPK) alpha-1/beta-1/gamma-1 (Homo sapiens), sequence (P54619 whole entry): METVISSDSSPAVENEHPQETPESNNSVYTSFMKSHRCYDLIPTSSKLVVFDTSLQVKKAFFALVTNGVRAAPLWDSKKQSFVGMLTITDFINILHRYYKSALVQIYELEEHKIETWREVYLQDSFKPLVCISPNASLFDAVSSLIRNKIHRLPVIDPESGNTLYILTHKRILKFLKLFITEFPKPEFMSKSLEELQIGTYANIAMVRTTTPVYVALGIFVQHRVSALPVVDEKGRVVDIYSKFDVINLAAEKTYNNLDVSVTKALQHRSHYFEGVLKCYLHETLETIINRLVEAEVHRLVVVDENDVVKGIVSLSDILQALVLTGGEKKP
AMP-activated protein kinase (AMPK) alpha-1/beta-1/gamma-1 (Homo sapiens), sequence (Q13131 whole entry partner): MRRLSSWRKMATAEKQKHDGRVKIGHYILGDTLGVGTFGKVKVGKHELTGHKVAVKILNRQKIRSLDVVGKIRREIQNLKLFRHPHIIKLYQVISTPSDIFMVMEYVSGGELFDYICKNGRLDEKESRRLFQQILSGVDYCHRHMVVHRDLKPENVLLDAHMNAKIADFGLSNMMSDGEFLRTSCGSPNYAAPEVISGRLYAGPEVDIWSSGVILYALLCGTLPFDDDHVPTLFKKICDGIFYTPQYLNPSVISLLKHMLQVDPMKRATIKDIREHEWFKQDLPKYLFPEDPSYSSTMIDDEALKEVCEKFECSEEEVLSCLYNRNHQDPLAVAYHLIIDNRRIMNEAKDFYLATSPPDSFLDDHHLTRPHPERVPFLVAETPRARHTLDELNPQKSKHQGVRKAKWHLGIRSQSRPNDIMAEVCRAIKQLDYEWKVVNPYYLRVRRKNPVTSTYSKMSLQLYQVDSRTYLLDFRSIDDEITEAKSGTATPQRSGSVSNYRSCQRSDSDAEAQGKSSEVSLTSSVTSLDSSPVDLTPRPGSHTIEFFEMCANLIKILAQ
AMP-activated protein kinase (AMPK) alpha-1/beta-1/gamma-1 (Homo sapiens), sequence (Q9Y478 2-270 partner limits assumed): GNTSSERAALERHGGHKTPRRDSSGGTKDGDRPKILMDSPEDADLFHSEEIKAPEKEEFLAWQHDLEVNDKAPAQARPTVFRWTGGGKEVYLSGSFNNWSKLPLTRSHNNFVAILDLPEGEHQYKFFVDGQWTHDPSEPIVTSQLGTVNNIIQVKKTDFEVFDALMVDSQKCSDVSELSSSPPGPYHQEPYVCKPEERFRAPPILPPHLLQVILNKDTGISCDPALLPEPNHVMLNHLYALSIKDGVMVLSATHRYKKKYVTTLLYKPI

[5] = Oral bioavailability in rat; type: ADME, organism-based; conditions: in vivo
HepG2 [6] = assay: Activation of AMPKalpha in human HepG2 cells assessed as induction of AMPKalpha phosphorylation at Thr172 residue at 10 uM by Western blot analysis; type: cell-based
[7] = target: AMP-activated protein kinase, AMPK (Homo sapiens) (UniProt P54646+O43741+P54619+Q9UGJ0+Q9Y478+Q13131+Q9UGI9); assay: Activation of AMPK in human HepG2 cells assessed as induction of ACC phosphorylation at Ser79 residue at 10 uM by Western blot analysis; type: cell-based
HepG2 [8] = assay: Increase in glucose consumption in human HepG2 cells assessed as glucose content in medium at 10^-6 M measured after 24 hrs by glucose oxidase method relative to berberine; type: functional
[9] = target: T1, Peroxisome proliferator-activated receptor gamma (Homo sapiens, UniProt P37231); assay: Transactivation of human PPARgamma transfected in U2OS cells co-tranfected with human RXR measured after 24 hrs by luciferase reporter assay; type: cell-based
T1 sequence (P37231 whole entry): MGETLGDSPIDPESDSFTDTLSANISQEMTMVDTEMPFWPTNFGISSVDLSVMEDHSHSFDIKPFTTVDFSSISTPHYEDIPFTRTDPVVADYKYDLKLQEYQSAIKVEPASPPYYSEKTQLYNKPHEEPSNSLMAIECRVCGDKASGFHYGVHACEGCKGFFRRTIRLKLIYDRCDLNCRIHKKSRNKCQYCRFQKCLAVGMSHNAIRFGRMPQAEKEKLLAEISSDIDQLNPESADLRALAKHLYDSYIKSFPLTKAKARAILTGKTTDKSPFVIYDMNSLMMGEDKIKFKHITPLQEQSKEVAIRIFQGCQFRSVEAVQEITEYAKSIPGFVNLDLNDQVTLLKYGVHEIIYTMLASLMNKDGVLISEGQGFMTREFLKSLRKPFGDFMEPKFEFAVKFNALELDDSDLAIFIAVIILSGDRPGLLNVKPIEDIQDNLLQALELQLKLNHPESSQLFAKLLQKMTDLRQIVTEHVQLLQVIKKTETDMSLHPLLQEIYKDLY

Row | Structure (SMILES) | Activity (HepG2 [1]) | further results
1 | COc1cc2c(c(OC)c1)CC1c3cc4c(cc3CC(C(=O)O)N1C2)OCO4 (stereo unspecified) | 9.65% | 
2 | COc1cc2c[n+]3c(cc2c(OC)c1OC)-c1cc2c(cc1CC3C(=O)O)OCO2.[Cl-] (stereo unspecified) | 9.1% | 
3 | COc1ccc2c(c1OC)CN1C(C(=O)O)Cc3cc4c(cc3C1C2)OCO4 (stereo unspecified) | 6.39% | 
4 | COc1ccc2c(c1OC)C[N+]1(CCCC(=O)O)CCc3cc4c(cc3C1C2)OCO4.[Cl-] (stereo unspecified) | 16% | fold change (FC) (HepG2 [2]): 1.32; fold change (FC) (HepG2 [3]): 1.15
5 | O=C(O)C1CCC2C(C1)c1cc(OCc3ccccc3)ccc1N2C(=O)c1ccc(Cl)cc1 (stereo unspecified) |  | Activity [4]: 362 nM
6 | COc1ccc(OC)c2c[n+]3c(cc12)-c1cc2c(cc1CC3C(=O)O)OCO2.[Cl-] (stereo unspecified) | 7.44% | 
7 | CN(C)C(=N)NC(=N)N [METFORMIN] | 12.07% | 
8 | COc1ccc2cc3[n+](cc2c1OC)CCc1cc2c(cc1-3)OCO2.[Cl-] [BERBERINE CHLORIDE] | 5.16% | bioavailability [5]: < 1%
9 | CN(CCOc1ccc(CC2SC(=O)NC2=O)cc1)c1ccccn1 (stereo unspecified) [ROSIGLITAZONE] | 13.87% | 
10 | COc1ccc2c(c1OC)C[N+]1(CC(=O)O)CCc3cc4c(cc3C1C2)OCO4.[Cl-] (stereo unspecified) | 15.4% | 
11 | COc1cc2cc3[n+](cc2cc1OC)C(CC(=O)O)Cc1cc2c(cc1-3)OCO2.[Cl-] (stereo unspecified) | 15.31% | 
12 | COc1ccc2c(c1OC)CN1C(CC(=O)O)Cc3cc4c(cc3C1C2)OCO4 (stereo unspecified) | 7.16% | 
13 | COc1ccc2c(c1OC)C[N+]1(CCCCCC(=O)O)CCc3cc4c(cc3C1C2)OCO4.[Cl-] (stereo unspecified) | 15.78% | 
14 | COc1ccc2cc3[n+](cc2c1OC)C(C(=O)O)Cc1cc2c(cc1-3)OCO2.[Cl-] (stereo unspecified) | 1.88% | 
15 | COc1ccc2cc3[n+](cc2c1OC)C(CC(=O)O)Cc1cc2c(cc1-3)OCO2.[Cl-] (stereo unspecified) | 2.8% | 
16 | COc1ccc(OC)c2c1CC1c3cc4c(cc3CC(C(=O)O)N1C2)OCO4 (stereo unspecified) | 12.43% | 
17 | COc1ccc2c(c1OC)C[N+]1(CCCCC(=O)O)CCc3cc4c(cc3C1C2)OCO4.[Cl-] (stereo unspecified) | 14.52% | 
18 | COc1cc(OC)c2cc3[n+](cc2c1)C(CC(=O)O)Cc1cc2c(cc1-3)OCO2.[Cl-] (stereo unspecified) | 9.02% | 
19 | COc1cc2c[n+]3c(cc2c(OC)c1OC)-c1cc2c(cc1CC3CC(=O)O)OCO2.[Cl-] (stereo unspecified) | 10.18% | 
20 | COc1cc(OC)c2cc3[n+](cc2c1)C(C(=O)O)Cc1cc2c(cc1-3)OCO2.[Cl-] (stereo unspecified) | 8.62% | 
21 | COc1ccc2c(c1OC)C[N+]1(Cc3ccc(C(=O)O)cc3)CCc3cc4c(cc3C1C2)OCO4.[Cl-] (stereo unspecified) | 12.11% | 
22 | COc1ccc(OC)c2c[n+]3c(cc12)-c1cc2c(cc1CC3CC(=O)O)OCO2.[Cl-] (stereo unspecified) | 9.44% | 
23 | COc1cc2c(cc1OC)CN1C(C(=O)O)Cc3cc4c(cc3C1C2)OCO4 (stereo unspecified) | 16.76% | Activity (HepG2 [6]): Active; Activity [7]: Active; fold change (FC) (HepG2 [8]): 3.23; fold change (FC) (HepG2 [2]): 1.39; fold change (FC) (HepG2 [3]): 1.2; EC50 [9]: > 100 µM
24 | COc1cc2cc3[n+](cc2cc1OC)C(C(=O)O)Cc1cc2c(cc1-3)OCO2.[Cl-] (stereo unspecified) | 6.92% | Activity (HepG2 [6]): Active; Activity [7]: Active; EC50 [9]: > 100 µM

Reference: ChEMBL document CHEMBL4406871, “Novel berberine-based derivatives with potent hypoglycemic activity” (Bioorg Med Chem Lett, 2019)
